US20060160721A1, “Method of plasma lipidation to prevent, inhibit and/or reverse atherosclerosis” (BAYLOR COLLEGE OF MEDICINE, priority 2004, published 2006)

Experiment: Lipoprotein cholesterophilicity: cholesterol partitioning between lipoproteins and 2-hydroxypropyl-cyclodextrin (CDX)
Assay type: binding
Conditions: isolated LDL and HDL enriched with POPC by DP
Protocol: Control samples were prepared without detergent or POPC. The samples were dialyzed as described above. […] The samples were incubated for three hours and transferred to Microcon ultracentrifugal filters with an exclusion limit of 30 kDa and centrifuged for 10 min at 12,000 rpm in an Eppendorf microfuge. Aliquots of the retentate and filtrate were analyzed for cholesterol, protein, and phospholipid. The partition coefficient Kp for the distribution of cholesterol between TLP and CDX was calculated from Kp={FCBound×[[…]} Equation 1 where TLPPro is the initial TLP-protein concentration (mg/mL), […], and FCBound, respectively are the free cholesterol concentrations in the retentate, filtrate, and bound to TLP with FCBound calculated as […].

## CCCCCCCC/C=C\CCCCCCCC(=O)O[C@H](COC(=O)CCCCCCCCCCCCCCC)COP(=O)([O-])OCC[N+](C)(C)C [POPC, 1-palmitoyl-2-oleoyl (PO) PC]
  effect of added POPC on the cholesterophilicities of LDL and HDL: dose-dependent increase
